The source of these data is ChEMBL document CHEMBL1154818, “Molecular modeling study of binding site selectivity of TQMP to G-quadruplex DNA” (Eur J Med Chem, 2010).

Assay [1] concerns Nucleic Acid. The assay can be described thus: Binding affinity to DNA duplex. The format is nucleic-acid assay.
For assay [2], the system named is Nucleic Acid. The assay can be described thus: Binding affinity to d(TTAGGG) sequence of G-quadruplex DNA. The format is nucleic-acid assay.

In the case of `C[n+]1ccc(-c2c3nc(c(-c4cc[n+](C)cc4)c4ccc([nH]4)c(-c4cc[n+](C)cc4)c4ccc([nH]4)c(-c4cc[n+](C)cc4)c4nc2C=C4)C=C3)cc1`, the K is 2.73 ×10⁶ /mol with Nucleic Acid [1] and 1.38 ×10⁷ /mol in the assay with Nucleic Acid [2].
For `C[N+](C)(C)Cc1cc(-c2c3nc(c(-c4ccc(O)c(C[N+](C)(C)C)c4)c4ccc([nH]4)c(-c4ccc(O)c(C[N+](C)(C)C)c4)c4nc(c(-c5ccc(O)c(C[N+](C)(C)C)c5)c5ccc2[nH]5)C=C4)C=C3)ccc1O` the same measures were 3.18 ×10⁴ /mol and 1.12 ×10⁶ /mol.
